Legend:
[1] = test system: skin allografts; assay: Skin allograft survival (SJL/J skin on (BALB/c×C57BL/6)F1 mice); type: in vivo; settings: 0.05 mg/kg daily
Experimental: FIG. 1. Treatment with heparin (0.05 mg/kg) prevents rejection of skin allografts. Mice of hybrid strain (BALB/c×C57BL/6)F1 were grafted with skin from allogeneic SJL/J mice. The mice (20 per group) were treated daily with subcutaneous injections of saline (squares) or with heparin ("Leo", 0.05 mg/kg; diamonds) and scored for skin graft survival. Median survival for the control group was 10 days while that for the heparin treated group was 24 days.
FIG. 2. Treatment with N-desulfated, N-acetylated heparin (10 mg/kg) prevents rejection of skin allografts. Mice were grafted as described for FIG. 1 and treated daily with saline (squares) or N-desulfated, N-acetylated heparin (10 mg/kg; diamonds). The median survival of the skin allograft in the control group was 10 days while that in the treated group was 20 days.
The median survival time of the skin grafts on control mice treated with saline was […] while that on mice treated with 0.05 mg/kg daily of heparin was 26 days with maximal survival to 32 days.

[2] = test system: experimental autoimmune encephalomyelitis (EAE); assay: Experimental autoimmune encephalomyelitis (EAE) produced by anti-BP T lymphocytes; type: in vivo, Lewis rats; settings: for Day of onset of EAE / Duration of EAE / % incidence of EAE / Clinical score of EAE: 0.1 mg/kg daily; for % incidence of EAE: None 100; for Clinical score of EAE: scale 1-4, None 3.0
From the text: EAE is an experimental autoimmune disease with some features reminiscent of multiple sclerosis in humans. The disease is caused by T lymphocytes immunized to the basic protein (BP) of the central nervous system myelin. To test the effect of heparins on the ability of T lymphocytes to cause autoimmune disease, we used T lymphocytes sensitized against BP, either as T cell lines (Cohen, I. R. Experimental autoimmune encephalomyelitis: Pathogenesis and prevention. In: Immunoregulatory Processes in Multiple Sclerosis and Experimental Allergic Encephalomyelitis. A. A. Vandenbark and J. C. M. Raus, eds. Elsevier Biomedical Res. Amsterdam. 7:91-125 (1985)) or as populations of lymph node cells from BP immunized rats.
EAE was produced by inoculating Lewis rats with a T cell line of anti-BP T lymphocytes (10^6 cells) with anti-BP primed lymph node cells (10^7 cells) intravenously (Cohen, I. R. Experimental autoimmune encephalomyelitis: Pathogenesis and prevention. In: Immunoregulatory Processes in Multiple Sclerosis and Experimental Allergic Encephalomyelitis. A. A. Vandenbark and J. C. M. Raus, eds. Elsevier Biomedical Res. Amsterdam. 7:91-125 (1985)) One day before inoculation and daily for 10 days, the rats received either saline or the heparins.

[3] = rat, in vivo, 10 mg/kg

heparin
Maximal survival of skin allograft [1]: 32 days
EAE clinical score (FIG. 3) ([2]; 0.02 mg daily s.c. (0.1 mg/kg), from 1 day before T lymphocyte inoculation): inhibits EAE
Day of onset of EAE ([2]; B: T cell line, None 5.0): 6.5
Duration of EAE ([2]; B: T cell line, None 5.5): 3.6 days
% incidence of EAE ([2]; B: T cell line): 20%
Clinical score of EAE ([2]; B: T cell line): 1.0
Day of onset of EAE ([2]; D: primed lymph node cells, None 4.0): 6.3
Duration of EAE ([2]; D: primed lymph node cells, None 5.3): 4.0 days
% incidence of EAE ([2]; D: primed lymph node cells): 75%
Clinical score of EAE ([2]; D: primed lymph node cells): 1.5
Anti-coagulant effect (prothrombin time) [3]: increase in the prothrombin time

Source: patent US5206223A, “Method for inhibiting heparanase activity” (Yeda Research and Development Co. Ltd., priority 1986, dated 1993)
